For 11 compounds, TGI and GI50 results are on record in PubChem BioAssay (NCI).

“And” between values parts separate entries of the source, which are not always exact repeats. Equal entries are not always repeated.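 Dose response: 5 concentrations. Exposure: 48 h. Format: 96-well plates. Endpoint: linear interpolation; highest concentration if not reached. GI50 = concentration required for 50% inhibition of growth. The concentration for full growth arrest is given as TGI.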

Some test systems named below: BT-549 breast; UO-31 renal; SN12C renal; HOP-62 NSCLC; A498 renal; SNB-75 CNS; RXF 393 renal; OVCAR-8 ovarian; IGROV1 ovarian; A549 NSCLC; SK-MEL-2 melanoma.
Common to all, as to assay: NCI anticancer screen, dose series, 48 h

On to `CN(C)Cc1cc(C(=O)/C=C/c2cccc(Cl)c2)cc(CN(C)C)c1O`, for which the TGI in the experiment on BT-549 breast came to 25.8 µM; with UO-31 renal, 19.5 µM; in the experiment on SN12C renal, 11.4 µM; in the experiment with HOP-62 NSCLC it was 13.7 µM; with A498 renal, 14.2 µM; with SNB-75 CNS, 6.43 µM. The TGI in the experiment on RXF 393 renal was determined as 23.6 µM; with OVCAR-8 ovarian, 61.3 µM; with IGROV1 ovarian, 14.9 µM; in the experiment with A549 NSCLC it was 28.8 µM; with SK-MEL-2 melanoma it was 26 µM.

On to `O=[N+]([O-])c1ccc2c(Nc3ccccc3-c3ccccc3Nc3c4ccccc4nc4cc([N+](=O)[O-])ccc34)c3ccccc3nc2c1`, for which the TGI in the experiment with BT-549 breast amounted to 7.74 µM; in the experiment on UO-31 renal, 28.8 µM; in the experiment with SN12C renal, 58.1 µM; with HOP-62 NSCLC, 41.4 µM; with A498 renal, 52.3 µM; with SNB-75 CNS, 34.5 µM. Also, the TGI is 17.4 µM in the experiment with RXF 393 renal; 39.9 µM in the experiment with OVCAR-8 ovarian; 36.1 µM in the experiment with IGROV1 ovarian; over 56.2 µM in the experiment with A549 NSCLC; 6.55 µM in the experiment with SK-MEL-2 melanoma.

On to `O=S(=O)(O)c1cc(O)c2c(O)c(N=Nc3cccc4ccccc34)c(S(=O)(=O)O)cc2c1`, for which the TGI in the experiment on BT-549 breast, in the experiment with UO-31 renal, in the experiment with SN12C renal, in the experiment with HOP-62 NSCLC, with A498 renal and with SNB-75 CNS was over 100 µM throughout. Further, the TGI in the experiment on RXF 393 renal, in the experiment on OVCAR-8 ovarian, in the experiment with IGROV1 ovarian, in the experiment with A549 NSCLC and in the experiment on SK-MEL-2 melanoma was over 100 µM in each case.

On to `Oc1nc(N/N=C/c2ccccc2)[nH]c1/C=C1\C=Nc2ccccc21`, for which the TGI in the experiment on BT-549 breast, in the experiment with UO-31 renal, in the experiment on SN12C renal, with HOP-62 NSCLC, in the experiment on A498 renal and in the experiment on SNB-75 CNS was over 100 µM throughout. For the same compound, the TGI in the experiment with RXF 393 renal, in the experiment with OVCAR-8 ovarian, with IGROV1 ovarian, in the experiment with A549 NSCLC and in the experiment with SK-MEL-2 melanoma was over 100 µM each time.

On to `Cc1ccc(S(=O)(=O)c2ccc([N+](=O)[O-])o2)cc1`, for which the TGI in the experiment with BT-549 breast is 6.16 µM; in the experiment on UO-31 renal, 2.78 µM; with SN12C renal, 35.5 µM; in the experiment with HOP-62 NSCLC, 38.1 µM; in the experiment with A498 renal, 33.9 µM; in the experiment with SNB-75 CNS, 11.8 µM. Besides, the TGI came to 3.33 µM in the experiment with RXF 393 renal; 1.82 µM in the experiment on OVCAR-8 ovarian; 3.37 µM with IGROV1 ovarian; 28.1 µM in the experiment with A549 NSCLC; 28.7 µM with SK-MEL-2 melanoma.

Regarding `O/N=C1/C2CC3CC1(c1ccccc1)CC(/C3=N/O)/C2=N\O` (stereo unspecified), the TGI in the experiment on BT-549 breast, in the experiment on UO-31 renal, with SN12C renal, with HOP-62 NSCLC, in the experiment with A498 renal and in the experiment on SNB-75 CNS was over 100 µM throughout. Also, the TGI with RXF 393 renal, in the experiment with OVCAR-8 ovarian, in the experiment on A549 NSCLC and in the experiment on SK-MEL-2 melanoma was over 100 µM in each case.

Regarding `Cc1cc(O)ccc1C1(c2ccc(F)cc2)OC(=O)c2ccccc21` (stereo unspecified), the TGI in the experiment with BT-549 breast was 0.653 µM; with UO-31 renal, 16.1 µM; in the experiment on SN12C renal, 8.23 µM; with HOP-62 NSCLC, 19.7 µM; in the experiment with A498 renal, 32.9 µM; with SNB-75 CNS, 8.01 µM. Moreover, the TGI with RXF 393 renal was determined as 3.33 µM; in the experiment with OVCAR-8 ovarian, 2.05 µM; in the experiment with IGROV1 ovarian, 10.2 µM; in the experiment on A549 NSCLC, 18.3 µM; in the experiment with SK-MEL-2 melanoma, 17.4 µM.

`CC(C)C(C/C=C1/CC(CO)(COC(=O)C2CCCCC2)OC1=O)C(C)C` (stereo unspecified): the TGI in the experiment on BT-549 breast worked out at 54.8 µM; with UO-31 renal, 33.1 µM; in the experiment with SN12C renal, 31.9 µM; in the experiment on HOP-62 NSCLC it was 26.9 µM; in the experiment with A498 renal, 76.2 µM; in the experiment with SNB-75 CNS, 28.8 µM. Also, the TGI was 40.9 µM with RXF 393 renal; 32.7 µM with OVCAR-8 ovarian; 34.2 µM in the experiment on IGROV1 ovarian; 26.4 µM in the experiment with A549 NSCLC; over 100 µM in the experiment with SK-MEL-2 melanoma.

Take `O=C1CCC2(O)C3Cc4ccc(Oc5nnnn5-c5ccccc5)c5c4C2(CCN3CC2CC2)C1O5` (stereo unspecified): the TGI is over 100 µM with BT-549 breast; 61.1 µM in the experiment with UO-31 renal; over 100 µM in the experiment on SN12C renal; over 100 µM in the experiment with HOP-62 NSCLC; 90.1 µM in the experiment on A498 renal; over 100 µM with SNB-75 CNS. For the same compound, the TGI with RXF 393 renal was over 100 µM; in the experiment with OVCAR-8 ovarian it was over 100 µM; in the experiment with IGROV1 ovarian, over 100 µM; in the experiment with A549 NSCLC it was over 100 µM; with SK-MEL-2 melanoma, 53.1 µM.

Take `C/C=C/[C@H]1O[C@@](O)([C@@H](C)[C@H](O)[C@H](C)[C@H]2OC(=O)/C(OC)=C/C(C)=C/[C@@H](C)[C@@H](O)[C@@H](CC)[C@@H](O)[C@H](C)C/C(C)=C/C=C/[C@@H]2OC)C[C@H](OC2CC(O)C(OC(N)=O)C(C)O2)[C@@H]1C` (stereo partly specified): the TGI with BT-549 breast is 19.7 µM; in the experiment on SN12C renal, 23.5 µM; with HOP-62 NSCLC it was 1.11 µM; in the experiment with A498 renal, 33.1 µM; with SNB-75 CNS, 21.9 µM; in the experiment on RXF 393 renal, 37 µM. Also, the TGI in the experiment on OVCAR-8 ovarian came to 21.2 µM; in the experiment on IGROV1 ovarian, 20.9 µM; with A549 NSCLC, 17.7 µM; in the experiment with SK-MEL-2 melanoma, 3.22 µM.

For the compound `Cc1ccc(OCC2OC(n3cnc4c(Cl)ncnc43)CC2Oc2ccc(C)cc2)cc1` (stereo unspecified), the TGI in the experiment with BT-549 breast is 40 µM and 49.9 µM; in the experiment with UO-31 renal it was 15.8 µM and 3.29 µM; in the experiment on SN12C renal, 15.3 µM and 36.6 µM; with HOP-62 NSCLC, 13 µM and 38 µM; in the experiment on A498 renal it was over 70.8 µM; in the experiment with SNB-75 CNS, 34.3 µM and > 68.7 µM. The TGI in the experiment on RXF 393 renal was 10.6 µM and 37.2 µM; with OVCAR-8 ovarian, 24.6 µM and 24.2 µM; in the experiment on IGROV1 ovarian, 5.88 µM and 14 µM; in the experiment with A549 NSCLC, 15.9 µM and 37 µM; in the experiment with SK-MEL-2 melanoma, 30.2 µM and 33.8 µM. Besides, the GI50 in the experiment on UO-31 renal is 8.08 µM and 1.84 µM; with SN12C renal, 7.49 µM and 17.5 µM; in the experiment on HOP-62 NSCLC, 4.29 µM and 17.5 µM; in the experiment on A498 renal, 20.4 µM and > 44.5 µM; in the experiment with RXF 393 renal it was 2.85 µM and 10.9 µM; in the experiment with IGROV1 ovarian, 2.43 µM and 5.87 µM. The GI50 in the experiment with A549 NSCLC is 7.37 µM and 18.9 µM.
